Numbers after ± are expanded uncertainties.
Conditions: 101.33 kPa, Liquid; for speed of sound: Sing-around technique in a fixed-path interferometer; for mass density: Vibrating tube method

| speed of sound (298.15 K) | mass density (298.15 K) | speed of sound (303.15 K) | mass density (303.15 K) | speed of sound (308.15 K) | mass density (308.15 K) | speed of sound (313.15 K) | mass density (313.15 K) | speed of sound (318.15 K) | mass density (318.15 K) | speed of sound (323.15 K) | mass density (323.15 K) | SMILES |
| --- | --- | --- | --- | --- | --- | --- | --- | --- | --- | --- | --- | --- |
| 1131 ± 1 m/s | 679.91 ± 0.18 kg/m3 | 1109 ± 1 m/s | 675.63 ± 0.19 kg/m3 | 1088 ± 1 m/s | 671.33 ± 0.19 kg/m3 | 1066 ± 1 m/s | 667.01 ± 0.19 kg/m3 | 1045 ± 1 m/s | 662.65 ± 0.19 kg/m3 | 1024 ± 1 m/s | 658.26 ± 0.19 kg/m3 | CCCCCCC [heptane] |
| 1077 ± 2 m/s | 655.21 ± 0.26 kg/m3 | 1054 ± 2 m/s | 650.64 ± 0.26 kg/m3 | 1032 ± 2 m/s | 646.03 ± 0.26 kg/m3 | 1010 ± 2 m/s | 641.37 ± 0.26 kg/m3 | 988 ± 2 m/s | 636.67 ± 0.26 kg/m3 | 965 ± 2 m/s | 631.92 ± 0.26 kg/m3 | CCCCCC [hexane] |

| SMILES | speed of sound (298.15 K) | mass density (298.15 K) | speed of sound (303.15 K) | mass density (303.15 K) | speed of sound (308.15 K) | mass density (308.15 K) | speed of sound (313.15 K) | mass density (313.15 K) | speed of sound (318.15 K) | mass density (318.15 K) | speed of sound (323.15 K) | mass density (323.15 K) |
| --- | --- | --- | --- | --- | --- | --- | --- | --- | --- | --- | --- | --- |
| C1CCCCC1 [cyclohexane] | 1254 ± 1 m/s | 773.86 ± 0.14 kg/m3 | 1229 ± 1 m/s | 769.12 ± 0.14 kg/m3 | 1205 ± 1 m/s | 764.35 ± 0.14 kg/m3 | 1181 ± 1 m/s | 759.56 ± 0.14 kg/m3 | 1157 ± 1 m/s | 754.74 ± 0.14 kg/m3 | 1134 ± 1 m/s | 749.88 ± 0.15 kg/m3 |

Source: the NIST ThermoML archive (doi:10.1016/j.jct.2012.09.015)
